Values belong to the molecule of their own block, whether it stands above or below them. Square brackets hold non-standard residues; d marks the D form. Ends that are not written are not given here. Peptide text beside a SMILES is read from it. hArg = N=C(N)NCCCC[C@H](N)C(=O)O; Aib = CC(C)(N)C(=O)O
Experiments:
[1] = Repetitive daily dosing in TPTX rats (10 days); assay type: in vivo, rat; conditions: calcitriol 0.2 μg/kg oral daily 10 days
Method: FIGS. 20A-20D are graphs showing effects of once-daily SP-PTH on serum and urine Ca in TPTX rats. TPTX and sham-control rats were treated once daily, for 10 days, via sc. injection with either vehicle (Sham and TPTX) or SP-PTH (SEQ ID NO:11) (1, 2. 4, or 8 nmol/kg), or with 1,25(OH)2D (0.075 or 0.2 μg/kg. orn). After the last injection on day 10, the rats were placed in metabolic cages, and jugular vein blood was obtained at 8 (FIG. 20A) and 24 hrs (FIG. 20B); urine was collected for the intervals 0-8 (FIG. 20C) and 8-24 hrs (FIG. 20D); means±s.e.m: n=5; ′˜, P vs vehicle <005.
In therapeutic use in humans, one would administer doses sufficient to only normalize blood Ca. A key experiment is to determine if it is indeed feasible to normalize sCa following a repetitive dosing regimen. We thus performed the experiment of FIGS. 20A-2D, in which TPTX rats were treated daily for 10 days with SP-PTH at doses of 1, 2, 4 and 8 nmol/kg (s.c). For comparison, 1,25(OH)2-vitamin-D (calcitriol) at doses of 0.075 and 0.2 mcg/kg (oral) were used for the same time periods.

[2] = target: T1, rat PTHR1 (R0) (Rattus norvegicus, UniProt P25961); assay: Competition binding, R0 conformation of rat PTHR1; conditions: R0 conformation; mean of 4 experiments; read-out: Binding rat PTHR1 IC50 (Log M) R0 (converted)
T1 sequence (P25961 27-591): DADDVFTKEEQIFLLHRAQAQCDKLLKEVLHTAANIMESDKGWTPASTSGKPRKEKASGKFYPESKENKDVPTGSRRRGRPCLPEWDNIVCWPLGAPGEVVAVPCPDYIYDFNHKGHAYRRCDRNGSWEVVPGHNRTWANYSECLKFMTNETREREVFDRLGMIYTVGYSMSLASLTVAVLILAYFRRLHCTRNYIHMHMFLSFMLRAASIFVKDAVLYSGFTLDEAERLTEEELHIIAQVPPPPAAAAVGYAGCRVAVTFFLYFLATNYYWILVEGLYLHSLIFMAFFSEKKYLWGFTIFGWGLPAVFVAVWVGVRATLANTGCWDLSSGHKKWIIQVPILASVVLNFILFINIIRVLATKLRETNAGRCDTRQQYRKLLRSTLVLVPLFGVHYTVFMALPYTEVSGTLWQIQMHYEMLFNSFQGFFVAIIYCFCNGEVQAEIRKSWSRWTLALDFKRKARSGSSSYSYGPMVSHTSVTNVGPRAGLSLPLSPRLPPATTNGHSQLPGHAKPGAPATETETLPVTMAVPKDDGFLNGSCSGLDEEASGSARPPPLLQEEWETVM
Text: Briefly, the R^0 form of the receptor can be favored by addition of the non-hydrolyzable nucleotide analog GTPγS. The RG form can be favored, for example, by co-transfection of cells with a negative dominant Gαs subunit. […] Data are means of four experiments, each performed in duplicate. Curves were fit to the data using Graph-Pad Prism 4.0.

[3] = tested on: MC3T3-E1 cells; assay: cAMP RIA in intact MC3T3-E1 cells; assay type: cell-based, mouse; conditions: 30 min, room temperature, IBMX
Method: cAMP stimulating activity of these polypeptides was also assessed, using two different methods: a radioimmunoassay (RIA; FIG. 2) and a cAMP responsive element fused to a luciferase gene (FIG. 3). Briefly, the RIA cAMP assays were performed in intact MC3T3-E1 cells, a mouse pre-osteoblastic cell line, in 96-well plates, as described by Okazaki et al. (Proc Natl Acad Sci USA 105:16525-30, 2008). […] The cAMP contents of the HCl lysates were then determined by RIA. Data are means of six experiments, each performed in duplicate. Curves were fit to the data using Graph-Pad Prism 4.0.

[4] = Peptide pharmacokinetics in TPTX rats
[5] = target: T2, rat PTH receptor (rat, UniProt P25961 27-591, limits assumed); assay: radioligand displacement, rat PTHR1, R0 conformation
T2 construct: R0 and RG conformations assayed separately by the method of WO 2009/017809 or a similar one; also called rat PTHR1
T2 sequence (looked up): T1 sequence (P25961 27-591)

[6] = target: T3, human PTH-1 receptor (human, UniProt Q03431 27-593); assay: radioligand competition, human PTHR1 in COS-7 membranes, R0 conformation
T3 construct: whole, on cells; also called human PTHR1; human PTH receptor
T3 sequence (looked up): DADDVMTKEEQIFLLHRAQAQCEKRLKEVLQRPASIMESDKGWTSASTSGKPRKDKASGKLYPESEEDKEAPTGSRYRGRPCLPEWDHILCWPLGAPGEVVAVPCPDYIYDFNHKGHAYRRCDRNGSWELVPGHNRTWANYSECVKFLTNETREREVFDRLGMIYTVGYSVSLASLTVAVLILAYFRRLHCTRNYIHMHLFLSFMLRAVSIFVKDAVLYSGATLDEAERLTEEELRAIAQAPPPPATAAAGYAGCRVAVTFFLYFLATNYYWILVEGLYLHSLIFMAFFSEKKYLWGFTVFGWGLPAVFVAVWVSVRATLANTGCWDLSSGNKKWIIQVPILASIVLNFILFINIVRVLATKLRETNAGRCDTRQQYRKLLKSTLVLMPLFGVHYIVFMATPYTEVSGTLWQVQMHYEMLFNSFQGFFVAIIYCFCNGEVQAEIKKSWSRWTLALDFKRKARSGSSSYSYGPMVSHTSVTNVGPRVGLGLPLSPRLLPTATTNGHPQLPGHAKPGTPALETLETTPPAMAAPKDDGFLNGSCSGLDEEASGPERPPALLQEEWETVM
Method: (§1) Here, competition binding assays for the R⁰ and RG PTHR1 conformation were performed in membranes prepared from transfected COS-7 cells, as described by Dean et al., Mol Endocrinol 22:156-66, 2008. Data are means of three experiments, each performed in duplicate. Curves were fit to the data using Graph-Pad Prism 4.0.

[7] = target: T3, human PTH-1 receptor; assay: radioligand competition, human PTHR1 in COS-7 membranes, RG conformation
Method: as §1

[8] = Crl:CD(SD), rat, in vivo, iv, 24.3 nmol/kg
[9] = TPTX rats, 24.3 nmol/kg intravenously, mean

IC50 [2]: 1.48 nM
EC50 [3]: 0.048 nM
cAMP MC3T3-E1 cells EC50 (Log M) ([3]; 6 experiments): −10.3 ± 0.1 Log M
Molecule: CC[C@H](C)[C@H](NC(=O)[C@H](CCC(=O)O)NC(=O)C(C)(C)NC(=O)[C@@H](NC(=O)[C@H](C)N)C(C)C)C(=O)N[C@@H](CCC(N)=O)C(=O)N[C@@H](CC(C)C)C(=O)N[C@@H](CCSC)C(=O)N[C@@H](Cc1c[nH]cn1)C(=O)N[C@@H](CCC(N)=O)C(=O)N[C@@H](CCCCNC(=N)N)C(=O)N[C@@H](C)C(=O)N[C@@H](CCCCN)C(=O)N[C@@H](Cc1c[nH]c2ccccc12)C(=O)N[C@@H](CC(C)C)C(=O)N[C@@H](CC(N)=O)C(=O)N[C@@H](CO)C(=O)N[C@@H](CCSC)C(=O)N[C@@H](CCCNC(=N)N)C(=O)N[C@@H](CCCNC(=N)N)C(=O)N[C@H](C(=O)N[C@@H](CCC(=O)O)C(=O)N[C@@H](Cc1c[nH]c2ccccc12)C(=O)N[C@@H](CC(C)C)C(=O)N[C@@H](CCCNC(=N)N)C(=O)N[C@@H](CCCCN)C(=O)N[C@@H](CCCCN)C(=O)N[C@@H](CC(C)C)C(=O)N[C@@H](CCC(N)=O)C(=O)N[C@@H](CC(=O)O)C(=O)N[C@H](C(=O)N[C@@H](Cc1c[nH]cn1)C(=O)N[C@@H](CC(N)=O)C(=O)N[C@@H](Cc1ccccc1)C(N)=O)C(C)C)C(C)C [M-PTH(1-34), M-PTH(1-34).NH2, reference compound] (H-AV[Aib]EIQLMHQ[hArg]AKWLNSMRRVEWLRKKLQDVHNF-NH2; N-terminus assumed)
cAMP MC3T3-E1 cells Emax (pmole/well) [3]: 56.3 ± 13.4 pmole/well

IC50 [5]: 0.93 nM
IC50 [6]: 1.8 nM
IC50 [7]: 0.69 nM
B1: Aib-SP-PTH ([Ala1,12,Aib3,Gln10,Har11,Trp14]PTH(1-14)/PTHrP(15-36)) (peptide)
peptide: AV[Aib]EIQLMHQ[hArg]AKWIQDLRRRFFLHHLIAEIHTAEI-NH2
modifications: N-terminus assumed
SMILES: CC[C@H](C)[C@H](NC(=O)[C@H](CCC(=O)O)NC(=O)[C@H](C)NC(=O)[C@@H](NC(=O)[C@H](Cc1c[nH]cn1)NC(=O)[C@@H](NC(=O)[C@H](CCC(=O)O)NC(=O)[C@H](C)NC(=O)[C@@H](NC(=O)[C@H](CC(C)C)NC(=O)[C@H](Cc1c[nH]cn1)NC(=O)[C@H](Cc1c[nH]cn1)NC(=O)[C@H](CC(C)C)NC(=O)[C@H](Cc1ccccc1)NC(=O)[C@H](Cc1ccccc1)NC(=O)[C@H](CCCNC(=N)N)NC(=O)[C@H](CCCNC(=N)N)NC(=O)[C@H](CCCNC(=N)N)NC(=O)[C@H](CC(C)C)NC(=O)[C@H](CC(=O)O)NC(=O)[C@H](CCC(N)=O)NC(=O)[C@@H](NC(=O)[C@H](Cc1c[nH]c2ccccc12)NC(=O)[C@H](CCCCN)NC(=O)[C@H](C)NC(=O)[C@H](CCCCNC(=N)N)NC(=O)[C@H](CCC(N)=O)NC(=O)[C@H](Cc1c[nH]cn1)NC(=O)[C@H](CCSC)NC(=O)[C@H](CC(C)C)NC(=O)[C@H](CCC(N)=O)NC(=O)[C@@H](NC(=O)[C@H](CCC(=O)O)NC(=O)C(C)(C)NC(=O)[C@@H](NC(=O)[C@H](C)N)C(C)C)[C@@H](C)CC)[C@@H](C)CC)[C@@H](C)CC)[C@@H](C)CC)[C@@H](C)O)C(N)=O
notes: Synthetic hybrid analog of human PTH(1-14) and human PTHrP(15-36); also called Super-potent Aib-PTH; M-PTH(1-14)/rP(15-36)NH2

Further lines, the molecule ahead of its results:

Molecule: C=C1/C(=C\C=C2/CCC[C@]3(C)[C@@H]([C@H](C)CCCC(C)(C)O)CC[C@@H]23)C[C@@H](O)C[C@@H]1O [calcitriol, 1,25(OH)2-vitamin-D, reference compound]
sCa achieved [1]: 8 to 9 mg/dL
urine calcium [1]: elevated urine calcium

Molecule: CC[C@H](C)[C@H](NC(=O)[C@H](CCC(=O)O)NC(=O)[C@H](CO)NC(=O)[C@@H](NC(=O)[C@@H](N)CO)C(C)C)C(=O)N[C@@H](CCC(N)=O)C(=O)N[C@@H](CC(C)C)C(=O)N[C@@H](CCSC)C(=O)N[C@@H](Cc1c[nH]cn1)C(=O)N[C@@H](CC(N)=O)C(=O)N[C@@H](CC(C)C)C(=O)NCC(=O)N[C@@H](CCCCN)C(=O)N[C@@H](Cc1c[nH]cn1)C(=O)N[C@@H](CC(C)C)C(=O)N[C@@H](CC(N)=O)C(=O)N[C@@H](CO)C(=O)N[C@@H](CCSC)C(=O)N[C@@H](CCC(=O)O)C(=O)N[C@@H](CCCNC(=N)N)C(=O)N[C@H](C(=O)N[C@@H](CCC(=O)O)C(=O)N[C@@H](Cc1c[nH]c2ccccc12)C(=O)N[C@@H](CC(C)C)C(=O)N[C@@H](CCCNC(=N)N)C(=O)N[C@@H](CCCCN)C(=O)N[C@@H](CCCCN)C(=O)N[C@@H](CC(C)C)C(=O)N[C@@H](CCC(N)=O)C(=O)N[C@@H](CC(=O)O)C(=O)N[C@H](C(=O)N[C@@H](Cc1c[nH]cn1)C(=O)N[C@@H](CC(N)=O)C(=O)N[C@@H](Cc1ccccc1)C(=O)N[C@H](C(=O)N[C@@H](C)C(=O)N[C@@H](CC(C)C)C(=O)NCC(=O)N[C@@H](C)C(=O)N1CCC[C@H]1C(=O)N[C@@H](CC(C)C)C(=O)N[C@@H](C)C(=O)N1CCC[C@H]1C(=O)N[C@@H](CCCNC(=N)N)C(=O)N[C@@H](CC(=O)O)C(=O)N[C@@H](C)C(=O)NCC(=O)N[C@@H](CO)C(=O)N[C@@H](CCC(N)=O)C(=O)N[C@@H](CCCNC(=N)N)C(=O)N1CCC[C@H]1C(=O)N[C@@H](CCCNC(=N)N)C(=O)N[C@@H](CCCCN)C(=O)N[C@@H](CCCCN)C(=O)N[C@@H](CCC(=O)O)C(=O)N[C@@H](CC(=O)O)C(=O)N[C@@H](CC(N)=O)C(=O)N[C@H](C(=O)N[C@@H](CC(C)C)C(=O)N[C@H](C(=O)N[C@@H](CCC(=O)O)C(=O)N[C@@H](CO)C(=O)N[C@@H](Cc1c[nH]cn1)C(=O)N[C@@H](CCC(=O)O)C(=O)N[C@@H](CCCCN)C(=O)N[C@@H](CO)C(=O)N[C@@H](CC(C)C)C(=O)NCC(=O)N[C@@H](CCC(=O)O)C(=O)N[C@@H](C)C(=O)N[C@@H](CC(=O)O)C(=O)N[C@@H](CCCCN)C(=O)N[C@@H](C)C(=O)N[C@@H](CC(=O)O)C(=O)N[C@H](C(=O)N[C@@H](CC(N)=O)C(=O)N[C@H](C(=O)N[C@@H](CC(C)C)C(=O)N[C@H](C(=O)N[C@@H](CCCCN)C(=O)N[C@@H](C)C(=O)N[C@@H](CCCCN)C(=O)N[C@@H](CO)C(=O)N[C@@H](CCC(N)=O)C(=O)O)[C@@H](C)O)C(C)C)C(C)C)C(C)C)C(C)C)C(C)C)C(C)C)C(C)C [hPTH (1-84), hPTH(1-84)]
MRT [4, 8]: 3.58 min
Vd [4, 8]: 0.0662 L/kg
clearance [4, 8]: 17.2 mL/min/kg
half-life [4, 8]: 5.44 min
AUCinf [4, 9]: 1663 pmol·min/mL
AUClast [4, 9]: 1663 pmol·min/mL
